Data reported in patent publication US20170368018A1, “USE OF ELLAGIC ACID DIHYDRATE IN PHARMACEUTICAL FORMULATIONS TO REGULATE BLOOD GLUCOSE LEVELS” (HALO LIFE SCIENCE, LLC, priority 2014, published 2017).
Entries after “also recorded” stand apart in the source; their conditions may differ.

Legend:
[1] = tested on: mouse embryonic fibroblasts (MEFs); test: Cytotoxicity: cell proliferation by automated cell counting (flow cytometry); format: cell-based; settings: 48 hr exposure, 4 μM-0.04 nM, changes not statistically significant (P>0.05)
Method: (§1) The cytotoxicity of ellagic acid dihydrate in in vitro cell culture was evaluated. Cellular assays were performed using mouse embryonic fibroblasts (MEFs). Cells were unexposed (No Treatment) or exposed to varying concentrations of ellagic acid dihydrate (4 μM-0.04 nM) or vehicle (0.1% DMSO) for 48 hrs. All assays were run in triplicate.
Cell proliferation rates were determined using automated cell counting of cells after 48 hr exposure to ellagic acid dihydrate in complete medium (DMEM w/10% FBS). Cell were then washed thrice with 1× PBS and incubated with Accutase (Invitrogen) for 10 min at 37° C., neutralized with 10% FBS in 1× PBS, and analyzed by flow cytometry. Cell concentrations were determined by cell counting (500-1000) on a flow cytometer (Accuri C6, BD Biosciences). The concentration of cells reflects the impact of ellagic acid dihydrate on the cell population numbers (cell death and cell proliferation).

[2] = tested on: mouse embryonic fibroblasts (MEFs); test: Cytotoxicity: cell membrane integrity by propidium iodide (PI) labeling; format: cell-based; settings: 48 hr exposure
Method: as §1
Loss of cellular membrane integrity is an indication of cell death. Cell membrane integrity/cell toxicity was determined by adding propidium iodide (PI) to suspended cells prior to flow cytometry. PI is a red-fluorescent DNA stain that is excluded by live-healthy cells but will enter dead cells in a population. The presence of PI in 500-1000 cells per treatment group was determined by flow cytometry (Accuri C6, BD Biosciences). Cell with disrupted membranes, associated with cell death, are expected to be positively labeled with PI.

[3] = tested on: mouse myoblast C2C12 cells; test: Glucose uptake, 2-NBDG labeling, flow cytometry, C2C12; format: cell-based
Method: Cellular assays were performed using mouse myoblast C2C12 cells and MEF cells. […] Increased glucose uptake was indicated as increasing signal of 2-NBDG ([…]) in cells. Glucose uptake assays were carried out in a final incubation volume of 50 μl consisting of, 2-NBDG), (100 μM) in 1× Phosphate Buffered Saline w/Ca+, Mg+ (PBS++). The same buffer was used for washing cells. Insulin was used as a positive control. All testing compounds were prepared in 10% DMSO and diluted 1:100 for a final concentration of 0.1% DMSO (vehicle). Cells were culture to 70-90% confluence and then washed twice with PBS++. Cells were incubated for 30 minutes at 37° C. in PBS++. Nuclear stain, HCS CellMask stain (blue, Invitrogen), and/or testing compounds (ellagic acid dihydrate, insulin, or vehicle) were added. Cells were incubated for 30 min at 37° C. Cells were washed twice with PBS++and incubated with 2-NBDG for 10 minutes. Cells were washed thrice with PBS++and then imaged in PBS++. Alternatively, the final PBS wash was removed and cells were incubated with Accutase (Invitrogen) for 10 min at 37° C., neutralized with 10% FBS in 1× PBS, and analyzed by flow cytometry. An additional experiment was performed to measure glucose uptake in C2C12 cells exposed to metformin, insulin and ellagic acid dihydrate 2 (batch 2). FIG. 5C.

[4] = tested on: GLUT4-GFP in mouse myoblast C2C12 cells; test: Localization of glucose transporter GLUT4-GFP, time-lapse confocal microscopy; format: cell-based; settings: C2C12, 4000 nM
Method: Induction of glucose transporter, GLUT-4, in ellagic acid dihydrate treated cell cultures was studied. Cellular assays were performed using mouse myoblast C2C12 cells. The cells were infected with a fusion glucose transporter 4 green fluorescent protein (GLUT4-GFP). This protein allows the visualization of GLUT4 by imaging the GFP under fluorescent time-lapse microscopy. Frames were compiled to produce time-lapse images of cellular changes with no treatment or treatment with insulin. The localization of glucose transporter (GLUT4-GFP) was performed in final incubation volume of 505 μL, consisting of 500 μL of Hank's Buffer (Invitrogen) and 5 μl of tested compounds. Insulin was used as positive controls and vehicle (0.1% DMSO) as the negative control. All test compounds were prepared in 10% DMSO and diluted 1:100 for a final concentration of 0.1% DMSO (vehicle). The cells were rinsed in Hank's Buffer thrice and then incubated in Hank's Buffer at 37° C. for one hour. The test compounds were added (ellagic acid dihydrate, insulin, or vehicle) and the cells were imaged using laser-confocal microscopy (Leica TCS SP5 X) with FITC fluorescent filters to determine changes in GLUT4-GFP localization. Time-lapse images (TIF) were collected and post-processed using Image-J (NIH) for video construction.

[5] = tested on: p44/42 MAPK / Phos p44/42 MAPK in C2C12 cells; test: p44/42 MAPK:phos p44/42 MAPK ratio by immunocytochemistry, high-content imaging; format: cell-based, mouse; settings: C2C12, treated 30 minutes, 400 nM, 0.04 nM, FIG. 9
Method: Stimulation of AKT pathways and MAPK pathways in ellagic acid dihydrate, metformin, and insulin treated cell cultures was performed. Insulin stimulates glucose uptake into cells by increasing GLUT4 activation, and AKT, specifically phos-AKT, signaling alters GLUT4 translocation. […] Cellular assays were performed using mouse myoblast C2C12 cells. Relative protein levels of AKT:phos AKT and p44/42 MAPK:phos p44/42 MAPK were determined.
Serum starved cells (1 hr) were treated for 30 minutes with each of the tested compounds. Ratios of phosphorylated to non-phosphorylated proteins were determined using immunocytochemistry labeling (anti-AKT, anti-Phos AKT; or anti-p44/42 MAPK, anti-Phos p44/42 MAPK) on a high-content imaging system (Operetta, Perkin Elmer) using the fluorescent signal of anti-rabbit Alexa 647. Increased phosphorylation is indicated as decrease in signal of AKT:Phos AKT ratio (log2 scale) and p44/42 MAPK:Phos p44/42 MAPK ratio (log2 scale) relative to vehicle treated cells.

SMILES: O.O.O=c1oc2c(O)c(O)cc3c(=O)oc4c(O)c(O)cc1c4c23 [ellagic acid dihydrate]
- Cell proliferation [1]: trend toward increasing cell proliferation
- Cell membrane integrity relative to the vehicle or untreated cells ([2]; 400 nM-0.4 nM, not statistically significant (P>0.05)): increased
- Cell membrane integrity (% cells negative for PI) ([2]; 4000 nM): 95.40%
- increase in glucose uptake in myoblasts relative to fibroblasts ([3]; C2C12 (FIGS. 5A, 5B) versus MEFs (FIGS. 4A, 4B)): ~4 ×
- increase in glucose uptake compared with metformin ([3]; C2C12, 4000 nm, FIG. 5C (batch 2)): greater increase in glucose uptake than metformin
- dose effect for increasing glucose uptake ([3]; C2C12, flow cytometry, 4 μM-0.04 nM): showed a dose effect
- glucose uptake (2-NBDG signal) relative to vehicle ([3]; C2C12, flow cytometry, FIG. 5A): significantly greater than vehicle treated
- glucose uptake relative to insulin ([3]; myoblasts, at most concentrations tested, significant at 4 nM-4 μM, dihydrate): significantly more glucose uptake relative to insulin; also recorded: exceeded the uptake induced by insulin
- GLUT4-GFP around the cell nucleus [4]: decrease in nuclear GLUT4-GFP
- ruffling of filopodia at the surface of the cell [4]: rapid ruffling of filopodia
- time course of GLUT4-GFP and membrane changes compared with insulin [4]: slightly delayed
- p44/42 MAPK:Phos p44/42 MAPK ratio relative to vehicle treated cells [5]: increase in p44/42 MAPK
